Earlier results as cited in patent US11859165B2, “Open-top microfluidic device with structural anchors” (EMULATE, INC., priority 2015, dated 2024).

Test system: cell monolayers with tight junctions
Conditions: passive paracellular diffusion across cell monolayers; value reported to be indicative of well-established monolayers

Lucifer Yellow
Permeability (Papp) for LY: 0.5 to 1.2 ×10⁻⁶ cm/s
